Assay results taken from patent publication US8859783B2, “Indirubin-3′-oxime derivatives as potent cyclin dependent kinase inhibitors” (Anygen Co., Ltd., priority 2010, dated 2014).
Values joined by “and” are separate entries in the source; they are usually repeats but may differ in a detail not shown here. Equal entries are not always repeated.

Assays:
CDK2/cyclin E = target: T1, CDK2/cyclin E (Homo sapiens, UniProt P24941); experiment: CDK2/cyclin E kinase assay; type: biochemical; conditions: for IC50: ten concentrations, dose response curves, read-out: CDK2/cyclin E inhibitory activity IC50; for CDK2 potency relative to compound 1: higher potency than 1
T1 construct: purchased Milipore (Billerica, Mass.)
Protocol: CDK1/cyclin B, CDK2/cyclin E were purchased from Milipore (Billerica, Mass.). The kinase activity was tested in buffer (8 mM MOPS pH 7.0, 0.2 mM EDTA, 10 mM MgAcetate), with 0.1 mg/mL histone H1, in the presence of 45 µM [—^33P] ATP (500 cpm/pmol) for CDK1 or 120 μM [γ—^33P] ATP (500 cpm/pmol) for CDK2 in a final reaction volume of […]. The reaction was initiated by the addition of the MgATP mix. After incubation for 40 min at 30° C., the reaction was stopped by the addition of 5 μL of 3% phosphoric acid solution. 10 μL aliquots of supernatant were spotted onto 2.5 cm×3 cm pieces of Whatman […] phosphocellulose paper, and 20 s later, the filters were washed three times for 5 min in 75 mM phosphoric acid and once in methanol prior to drying. The […] filters were counted in the presence of 1 mL of ACS (Amersham) scintillation fluid. The activities are usually expressed as a percentage of the maximal activity, i.e., in the absence of inhibitors. Controls were applied with appropriate dilutions of DMSO.

[1] = tested on: A549 human lung cancer cell; experiment: SRB cell proliferation assay, A549; type: cell-based; conditions: A549, 72 h, 3 days
Protocol: (§1) ^a A series of indirubin derivatives were tested at five concentrations for their effects on various human cancer cell lines using SRB assay, as described in the Experimental Section.
(§2) Cells (A549, HT1080, HCT116, K562, SNU638, KB, MCF-7) were counted, diluted to 5×10^4 cells/mL with fresh medium (MEME, DMEM or RPMI containing 10% FBS), and added 190 μL of cell suspension to 96-well plates containing various concentrations of test compounds (10 μL in 10% aqueous DMSO). Test plates were incubated for 3 days at 37° C. in CO2 incubator. For zero day controls, cells were incubated for 30 min at 37° C. in CO2 incubator. All treatments were performed in triplicate. After the incubation periods, cells were fixed with 50 μL of cold 50% TCA at 4° C. for 30 min, washed 5 times with tap water, and air-dried. The fixed cells were stained with 0.4% SRB solution in 1% aqueous acetic acid at room temperature for 1 h. Free SRB solution was then removed by rinsing 5 times with 1% acetic acid, and air-dried. The bound dye was dissolved with 200 µL of 10 mM Tris-base (pH 10.0), and absorbance was determined at 515 nm using an ELISA microplate reader. Finally, the absorbance values obtained with each of the treatment procedures were averaged, and the average values obtained with the zero day control were subtracted.

[2] = tested on: HT1080 human fibro sarcoma cell; experiment: SRB cell proliferation assay, HT1080; type: cell-based; conditions: HT-1080, 72 h, 3 days
Protocol: as §1, §2

[3] = tested on: HCT116 human colon cancer cell; experiment: SRB cell proliferation assay, HCT116; type: cell-based; conditions: 3 days
Protocol: as §1, §2

K562 human leukemia cell = experiment: SRB cell proliferation assay, K562; type: cell-based; conditions: K562, 72 h, 3 days
Protocol: as §1, §2

[4] = tested on: SNU638 human stomach cancer cell; experiment: SRB cell proliferation assay, SNU638; type: cell-based; conditions: SNU-638, 72 h, 3 days
Protocol: as §1, §2

[5] = tested on: KB human nasopharyngeal cancer cell; experiment: SRB cell proliferation assay, KB; type: cell-based; conditions: 72 h, 3 days
Protocol: as §1, §2

[6] = tested on: MCF-7 human breast cancer cell; experiment: SRB cell proliferation assay, MCF-7; type: cell-based; conditions: MCF7, 72 h, 3 days
Protocol: as §1, §2

[7] = tested on: several human cancer cell lines; experiment: SRB cell proliferation assay, summary over cell lines; type: cell-based; conditions: for IC50: Homo sapiens, range over cell lines, read-out: anti-proliferative IC50, range over cancer cell lines
Protocol: as §1, §2

Row | Compound | IC50 (CDK2/cyclin E) | IC50 [1] [µM] | IC50 [2] [µM] | IC50 ([3]; Homo sapiens, HCT-116, 72 h) [µM] | IC50 (K562 human leukemia cell) [µM] | IC50 [4] [µM] | IC50 [5] [µM] | IC50 [6] [µM] | CDK2 potency relative to compound 1 (CDK2/cyclin E) | IC50 [3] [µM] | IC50 [7] [µM] | selectivity for CDK2 over CDK1 (CDK2/cyclin E; CDK2 vs CDK1) [fold] | CDK2 inhibitory effect relative to 16b (CDK2/cyclin E; enhanced compared with 16b) [fold] | anti-proliferative activity in words [7]
1 | O=C1Nc2ccc([N+](=O)[O-])cc2/C1=C1/Nc2ccccc2C1=NO [Compound 1, 5-nitroindirubin-3′-oxime, reference compound] | 0.007 µM and 0.00735 µM |  |  |  |  |  |  |  |  |  |  |  |  | 
2 | O=C1Nc2ccc(Cl)cc2/C1=C1/Nc2ccc(O)cc2C1=NO [Compound 11a, (2′Z, 3′E)-5′-Hydroxy-5-chloro-indirubin-3′-oxime] | 0.00527 µM | 16.4 | 2.92 | 3.5 | 12.2 | 5.14 | 10.2 | 10.7 |  |  |  |  |  | 
3 | O=C1Nc2ccc(F)cc2/C1=C1/Nc2ccc(O)cc2C1=NO [Compound 11c, (2′Z, 3′E)-5′-Hydroxy-5-fluoro-indirubin-3′-oxime] | 0.00225 µM | 4.09 | 0.68 | 1.66 | 1.4 | 2.11 | 4.6 | 2.6 |  |  |  |  |  | 
4 | O=C1Nc2ccc(OC(F)(F)F)cc2/C1=C1/Nc2ccc(O)cc2C1=NO [Compound 11d, (2′Z, 3′E)-5′-Hydroxy-5-trifluoromethoxy-indirubin-3′-oxime] | 0.00832 µM | 16.9 | 2.28 | 2.25 | 5.9 | 2.96 | 5.8 | 4.2 |  |  |  |  |  | 
5 | O=C1Nc2ccc(Cl)cc2/C1=C1/Nc2ccc(Cl)cc2C1=NO [Compound 12a, (2′Z, 3′E)-5′-Chloro-5-chloro-indirubin-3′-oxime] | 0.0111 µM | > 20 | 12.2 | 1.86 | 17.2 | 2.57 | 11.9 | 6.1 |  |  |  |  |  | 
6 | O=C1Nc2ccc(F)cc2/C1=C1/Nc2ccc(Cl)cc2C1=NO [Compound 12c, (2′Z, 3′E)-5′-Chloro-5-fluoro-indirubin-3′-oxime] | 0.0101 µM | 18.9 | 3.62 | 1.7 | 14.7 | 2.28 | 3.6 | 3.5 |  |  |  |  |  | 
7 | O=C1Nc2ccc(OC(F)(F)F)cc2/C1=C1/Nc2ccc(Cl)cc2C1=NO [Compound 12d, (2′Z, 3′E)-5′-Chloro-5-trifluoromethoxy-indirubin-3′-oxime] | 0.0762 µM | > 20 | 17.7 | 3.79 | > 20 | 2.71 | 2.8 | 4.2 |  |  |  |  |  | 
8 | O=C1Nc2ccc(Cl)cc2/C1=C1/Nc2ccc(F)cc2C1=NO [Compound 13a, (2′Z, 3′E)-5′-Fluoro-5-chloro-indirubin-3′-oxime] | 0.00801 µM | > 20 | 5.33 | 3.3 | 7.14 | 6.32 | 9.1 | 7 |  |  |  |  |  | 
9 | O=C1Nc2ccc([N+](=O)[O-])cc2/C1=C1/Nc2ccc(F)cc2C1=NO [Compound 13b, (2′Z, 3′E)-5′-Fluoro-5-nitro-indirubin-3′-oxime] | 0.00171 µM | 0.57 | 0.64 | ~0.3 | 0.46 | 0.94 | 0.9 | 0.9 | approximately 4 fold | 0.28 | 0.2 to 3.3 |  |  | 
10 | O=C1Nc2ccc(F)cc2/C1=C1/Nc2ccc(F)cc2C1=NO [Compound 13c, (2′Z, 3′E)-5′-Fluoro-5-fluoro-indirubin-3′-oxime] | 0.00183 µM | 10.3 | 8.6 | 13.5 | 15.9 | 2.23 | 13.2 | 6.57 | approximately 4 fold |  |  |  |  | 
11 | O=C1Nc2ccc(OC(F)(F)F)cc2/C1=C1/Nc2ccc(F)cc2C1=NO [Compound 13d, (2′Z, 3′E)-5′-Fluoro-5-trifluoromethoxy-indirubin-3′-oxime] | 0.0603 µM | 19.9 | 3.95 | 1.5 | 1.5 | 1.89 | 3.8 | 4.1 |  |  |  |  |  | 
12 | Cc1ccc2c(c1)C(=NO)/C(=C1/C(=O)Nc3ccc(Cl)cc31)N2 [Compound 14a, (2′Z, 3′E)-5′-Methyl-5-chloro-indirubin-3′-oxime] |  | > 20 | > 20 | 18.8 | > 20 | 12.7 | 5.18 | 8.79 |  |  |  |  |  | 
13 | Cc1ccc2c(c1)C(=NO)/C(=C1/C(=O)Nc3ccc([N+](=O)[O-])cc31)N2 [Compound 14b, (2′Z, 3′E)-5′-Methyl-5-nitro-indirubin-3′-oxime] | 0.00868 µM | > 20 | 3.92 | 1.41 | 0.8 | 1.06 | 2.1 | 1.06 |  |  | 0.8 to 1 | 7 | 270 | 
14 | Cc1ccc2c(c1)C(=NO)/C(=C1/C(=O)Nc3ccc(F)cc31)N2 [Compound 14c, (2′Z, 3′E)-5′-Methyl-5-fluoro-indirubin-3′-oxime] |  | > 20 | > 20 | > 20 | > 20 | 11.5 | 10.6 | 10.5 |  |  |  |  |  | 
15 | Cc1ccc2c(c1)C(=NO)/C(=C1/C(=O)Nc3ccc(OC(F)(F)F)cc31)N2 [Compound 14d, (2′Z, 3′E)-5′-Methyl-5-trifluoromethoxy-indirubin-3′-oxime] |  | > 20 | > 20 | > 20 | > 20 | > 20 | 8.13 | 7.3 |  |  |  |  |  | 
16 | COc1ccc2c(c1)C(=NO)/C(=C1/C(=O)Nc3ccc([N+](=O)[O-])cc31)N2 [Compound 16a, (2′Z, 3′E)-5′-Methoxy-5-nitro-indirubin-3′-oxime] | 2.95 µM | > 20 | > 20 | > 20 | > 20 | > 20 | > 20 | > 20 |  |  |  |  |  | 
17 | COc1ccc2c(c1)C(=NO)/C(=C1/C(=O)Nc3ccc(F)cc31)N2 [Compound 16b, (2′Z, 3′E)-5′-Methoxy-5-fluoro-indirubin-3′-oxime] | 4.12 µM | 6.71 | 4.84 | 3.59 | 5.29 | 13.6 | > 20 | > 20 |  |  |  |  |  | moderate anti-proliferative activity
18 | COc1ccc2c(c1)C(=NO)/C(=C1/C(=O)Nc3ccc(OC(F)(F)F)cc31)N2 [Compound 16c, (2′Z, 3′E)-5′-Methoxy-5-trifluoromethoxy-indirubin-3′-oxime] | 8.62 µM | > 20 | > 20 | > 20 | > 20 | > 20 | 20 | 13 |  |  |  |  |  | 
